SMILES strings stand for the structures.

Series [1] in a line: Lipophilicity index (substitution method). The format is physicochemical. The following applies: octanol/water.
Series [2] has as its system Leishmania major. The experiment in a line: Concentration required to reduce incorporation of [3H]TdR in drug-treated cultures of intracellular Leishmania major to 50% of controls. The format is functional, organism-based.
The test system of series [3] is Jurkat. The experiment in a line: Concentration required to reduce the growth of human Jurkat cells to 50% of control cultures. Type of series: functional, cell-based.
Series [4] has as its system Leishmania donovani. Nature of the series: Concentration required to reduce the number of macrophages infected with Leishmania donovani amastigotes to 50% of untreated controls. The following applies: read-out: ED50 (the source's name). The format is functional.
The subject of series [5] is Trypanosoma brucei. Nature of the series: Concentration required to inhibit the growth of extracellular Trypanosoma brucei trypomastigotes to 50% of untreated controls. Type of series: functional. The conditions noted are these: read-out: ED50 (the source's name).
Series [6] relates to Trypanosoma cruzi. Nature of the series: Concentration required to reduce the number of macrophages infected with Trypanosoma cruzi amastigotes to 50% of untreated controls. The format is functional. The following applies: read-out: ED50 (the source's name).
The nature of series [7]: relative lipophilicity determined where possible by computation by the fragment constant method. The following applies: octanol/water. Type of series: physicochemical.

Usually IC50 stands for the midpoint of a concentration-inhibition curve. Low values mean greater potency, high ones weaker potency. The compound `Nc1ccc(Nc2c3ccccc3nc3ccccc23)cc1` displayed an Index in series [1] of -1.23. In series [2], this compound gave an IC50 of 2100 nM.
The matching figures for `CN(C)Cc1ccc(Nc2c3ccccc3nc3ccccc23)cc1`: -0.15 and 1000 nM.
`COc1cc(NS(C)(=O)=O)ccc1Nc1c2ccc(N)cc2nc2cc(N)ccc12` gave an Index in series [1] of -3.66. The IC50 in series [2] is more than 3000 nM.
With `NS(=O)(=O)c1ccc(Nc2c3ccccc3nc3ccccc23)cc1`, the Index in series [1] is -1.82. In addition, the concentration for half-maximal inhibition (IC50) in series [3] was 5000 nM; in series [2] it was more than 3000 nM.
For the compound `CCCCCCNc1ccc(Nc2c3ccccc3nc3ccccc23)cc1`, the Index in series [1] stood at 2.38. For the same compound, the 50% inhibitory concentration (IC50) in series [3] stood at 17000 nM; in series [2], 550 nM. For the same compound, the EC50 in series [4] came out at 12300 nM; in series [5], 3900 nM; in series [6] it was 2200 nM.
`CCCCN(CCCC)c1ccc(Nc2c3ccccc3nc3ccccc23)cc1`: in series [1], the Index was determined as 3.56. Also, the IC50 in series [3] worked out at 2000 nM; in series [2], 350 nM. Further, the EC50 in series [4] is more than 10000 nM; in series [5] it was 1460 nM; in series [6], more than 10000 nM.
In turn, `CCCCCCN(C)c1ccc(Nc2c3ccc(Cl)cc3nc3ccc(OC)cc23)cc1` had an Index in series [1] of 3.73. The half-inhibitory concentration (IC50) in series [3] was more than 20000 nM; in series [2], 1800 nM. Also, the EC50 in series [4] is more than 3000 nM; in series [5] it was 4300 nM; in series [6], more than 3000 nM.
Take `CCN(CC)c1ccc(Nc2c3ccccc3nc3ccccc23)cc1`: the Index in series [1] worked out at 1.18. For the same compound, the IC50 stood at 1000 nM in series [3] and 400 nM in series [2]. Also, the EC50 in series [4] is 760 nM; in series [5] it was more than 300 nM; in series [6], more than 3000 nM.
`CCCCCCCc1ccc(Nc2c3ccccc3nc3ccccc23)cc1` came in with an Index in series [1] of 3.99. In addition, the IC50 in series [3] is 13000 nM; in series [2], 800 nM.
On to `Nc1ccc2c(Nc3ccc(CN4CCCC4)cc3)c3ccc(N)cc3nc2c1`, for which the figures for the half-maximal inhibitory concentration (IC50) in series [3] and in series [2] were more than 20000 nM and more than 3000 nM, respectively.
Compound `CN(C)Cc1ccc(Nc2c3ccc(N)cc3nc3cc(N)ccc23)cc1` displayed an Index in series [1] of -2.61. Further, the IC50 in series [3] is 12000 nM; in series [2], 5000 nM.
The compound `CN(C)c1ccc(Nc2c3ccccc3nc3ccccc23)cc1` came in with an Index in series [1] of 0.18. The 50% inhibitory concentration (IC50) in series [3] came out at 1000 nM; in series [2], 900 nM. In addition, the EC50 is 3600 nM in series [4], 1300 nM in series [5] and more than 3000 nM in series [6].
In turn, `CN(C)Cc1ccc(Nc2c3ccc(Cl)cc3nc3cc(Cl)ccc23)cc1` returned an Index in series [1] of 1.27. For the same compound, the IC50 in series [2] turned out to be 2000 nM.
In the case of `COc1cc(NS(C)(=O)=O)ccc1Nc1c2ccc(N(C)C)cc2nc2cc(N(C)C)ccc12`, the Index in series [1] is reported as -0.84. Further, the half-inhibitory concentration (IC50) in series [3] was 3000 nM; in series [2], more than 3000 nM.
With `CN(C)c1ccc2c(Nc3ccccc3)c3ccc(N(C)C)cc3nc2c1`, the Index in series [1] amounted to 0.36. It took 30 nM to reach half-maximal inhibition in series [2] (IC50).
The matching figures for `Nc1ccc2c(=Nc3ccc(S(N)(=O)=O)cc3)c3ccc(N)cc3[nH]c2c1`: -4.28 and more than 3000 nM.
On to `CNc1ccc(Nc2c3ccccc3nc3ccccc23)cc1`, for which, in series [1], the Index is -0.47. Further, in series [2], the half-maximal inhibitory concentration (IC50) is 1500 nM.
`CCCCCCN(C)c1ccc(Nc2c3ccccc3nc3ccccc23)cc1` returned an Index in series [1] of 3.04. Also, the IC50 in series [3] was 3000 nM; in series [2], 300 nM. Besides, the values for the EC50 in series [4], in series [5] and in series [6] were 1200 nM, 330 nM and more than 1000 nM, respectively.
With `CCCCCCNc1ccc(Nc2c3ccc(Cl)cc3nc3ccc(OC)cc23)cc1`, in series [1], the Index worked out at 3.07. In addition, the IC50 is 4000 nM in series [3] and 200 nM in series [2]. Further, the EC50 in series [4] was 4000 nM; in series [5] it was more than 300 nM; in series [6], more than 10000 nM.
Consider `NCCCCCCNS(=O)(=O)c1ccc(N=c2c3ccccc3[nH]c3ccccc23)cc1`, for which the concentration for half-maximal inhibition (IC50) in series [3] is more than 20000 nM; in series [2] it was more than 3000 nM.
On to `CNc1ccc(Nc2c3ccccc3nc3ccccc23)cc1OC(C)C`, for which the Liphophilicity in series [7] was found to be 0.38 sigma pi. Further, the concentration for half-maximal inhibition (IC50) in series [3] is 8000 nM; in series [2], 1300 nM.
For `c1ccc(Nc2c3ccccc3nc3ccccc23)cc1`, the Index in series [1] was found to be 0. Further, the IC50 in series [3] and in series [2] was 2700 nM in each case.
For the compound `Nc1ccc(Nc2c3ccccc3nc3ccccc23)cn1`, in series [1], the Index is on record as -2.74. Besides, the IC50 was determined as 3600 nM in series [3] and 3900 nM in series [2].
The compound `CCN(C)c1ccc(Nc2c3ccccc3nc3ccccc23)cc1` had an Index in series [1] of 0.68. Further, the IC50 in series [3] stood at 4000 nM; in series [2], 1000 nM. Moreover, the EC50 in series [4] came out at 4400 nM; in series [5], 880 nM; in series [6] it was 3300 nM.
The compound `CCCCCCNc1ccc(Nc2c3ccc(N(C)C)cc3nc3cc(N(C)C)ccc23)cc1` returned an Index in series [1] of 2.74. The IC50 in series [3] was determined as 1750 nM; in series [2] it was 160 nM. Moreover, the EC50 in series [4] is 250 nM; in series [5] it was 200 nM; in series [6], more than 3000 nM.
For the compound `CCCCCCN(CCCCCC)c1ccc(Nc2c3ccccc3nc3ccccc23)cc1`, the Index in series [1] came to 6.2. For the same compound, the IC50 in series [3] came out at 6500 nM; in series [2], 240 nM. Further, the EC50 in series [4] was 1350 nM; in series [5], more than 300 nM; in series [6], more than 3000 nM.
In series [1], `CCCCCCN(C)c1ccc(Nc2c3ccc(N(C)C)cc3nc3cc(N(C)C)ccc23)cc1` returned an Index of 3.4. Moreover, the 50% inhibitory concentration (IC50) in series [3] was 1750 nM; in series [2] it was 70 nM. In addition, the results for the EC50 in series [4], in series [5] and in series [6] were 30 nM, more than 300 nM and 120 nM, respectively.
`CCCCCCNc1ccc(Nc2c3ccccc3nc3ccccc23)cc1OC` displayed an Index in series [1] of 2.36. In addition, the 50% inhibitory concentration (IC50) was determined as 3500 nM in series [3] and 400 nM in series [2]. Further, the EC50 in series [4] is 1200 nM; in series [5], 650 nM; in series [6], 1800 nM.
`CCCCCCN(C)c1ccc(Nc2c3ccccc3nc3ccccc23)cc1OC` displayed an Index in series [1] of 3.02. Also, the figures for the IC50 in series [3] and in series [2] were 6500 nM and 600 nM, respectively. The results for the EC50 in series [4], in series [5] and in series [6] were 1900 nM, 1800 nM and more than 300 nM, respectively.
Regarding `CCCN(CCC)c1ccc(Nc2c3ccccc3nc3ccccc23)cc1`, in series [1], the Index was found to be 2.24. Further, the IC50 worked out at 1500 nM in series [3] and 200 nM in series [2]. Also, the EC50 in series [4] is more than 10000 nM; in series [5] it was 370 nM; in series [6], 2500 nM.
Regarding `CCCCCN(CCCCC)c1ccc(Nc2c3ccccc3nc3ccccc23)cc1`, in series [1], the Index came to 4.88. Besides, the IC50 in series [3] was found to be 2300 nM; in series [2], 160 nM. Moreover, the EC50 in series [4] was more than 90000 nM; in series [5], 200 nM; in series [6] it was more than 300 nM.
For `NCCNCCc1ccc(Nc2c3ccccc3nc3ccccc23)cc1`, the half-maximal inhibitory concentration (IC50) in series [3] turned out to be 4000 nM; in series [2], 700 nM.
With `c1ccc2c(Nc3ccc(NC4CCCCC4)cc3)c3ccccc3nc2c1`, the Index in series [1] was determined as 2. Besides, the IC50 in series [3] is more than 15000 nM; in series [2], 550 nM.
`CCCCCCNc1ccc(Nc2c3ccc(Cl)cc3nc3ccc(OC)cc23)cc1OC` had an Index in series [1] of 3.71. Besides, the IC50 is more than 20000 nM in series [3] and 500 nM in series [2]. The EC50 in series [4] is 3200 nM; in series [5], 600 nM; in series [6], 9300 nM.
Turning to `CCN(CC)CCCNc1ccc(Nc2c3ccccc3nc3ccccc23)cc1`, the Index in series [1] came to 3.29. For the same compound, the 50% inhibitory concentration (IC50) in series [3] worked out at 1300 nM; in series [2], 200 nM.
`CCN(CC)CCCc1ccc(Nc2c3ccccc3nc3ccccc23)cc1` displayed an Index in series [1] of 4.22. In addition, the concentration for half-maximal inhibition (IC50) in series [3] was less than 1000 nM; in series [2], 300 nM.
For the compound `CCCCCNCc1ccc(Nc2c3ccccc3nc3ccccc23)cc1`, the IC50 in series [3] was determined as 1530 nM; in series [2], 2000 nM.
`CCCCCCOc1ccc(Nc2c3ccccc3nc3ccccc23)cc1`: in series [1], the Index was determined as 2.87. Besides, the IC50 in series [3] was found to be 5000 nM; in series [2], 1000 nM.
The matching figures for `CCN(C)c1ccc(Nc2c3ccccc3nc3ccccc23)cc1OC`: 0.66, 16500 nM and more than 3000 nM.
For `c1ccc2c(Nc3ccc(NC4CCCC4)cc3)c3ccccc3nc2c1`, in series [1], the Index was found to be 1.8. Moreover, the half-maximal inhibitory concentration (IC50) in series [3] worked out at 5000 nM; in series [2], 450 nM.
Consider `c1ccc2c(Nc3ccc(CN4CCCC4)cc3)c3ccccc3nc2c1`, for which the IC50 was 2000 nM in series [3] and 200 nM in series [2].
As to `CCN(CC)CCNc1ccc(Nc2c3ccccc3nc3ccccc23)cc1OC`, the Index in series [1] was determined as 3.27. Further, the IC50 in series [3] is 1500 nM; in series [2], 1600 nM.
In series [1], `CNc1ccc(Nc2c3ccccc3nc3ccccc23)cc1OC` showed an Index of -0.49. Moreover, the results for the half-inhibitory concentration (IC50) in series [3] and in series [2] were 11000 nM and 3600 nM, respectively.
Regarding `COc1cc(NS(C)(=O)=O)ccc1Nc1c2ccccc2nc2ccccc12` [AMSACRINE], in series [1], the Index is on record as -1.2. The IC50 in series [3] is 200 nM; in series [2], 1500 nM.

(Values after ChEMBL document CHEMBL1130117, “Structure-activity relationships for the antileishmanial and antitrypanosomal activities of 1'-substituted 9-anilinoacridines” (J Med Chem, 1997).)
